≈ marks a conversion by molar mass, not a printed value. Like-named read-outs stand apart in the source and are kept apart here. Where a SMILES comes first, the peptide text is derived from it. [ ]: non-standard residue; d: D form. The star is where a group is joined. Fumaryl(OMe) = COC(=O)/C=C/C(=O)*; Dap = NC[C@H](N)C(=O)O
Tests used:
Type in all cases: cell-based, Candida albicans
C. albicans SC5314 = details: for MIC: SC 5314; for Increase of MICs in presence of Ala-Ala-Ala-Ala: YNB-SG + Ala-Ala-Ala-Ala 1 g L^-1; for Effect of supplementation with Ala-Ala or Ala-Ala-Ala on activity: YNB-based media + Ala-Ala or Ala-Ala-Ala, 1 g L^-1, 'similar effect' = complete elimination of activity as with Bacto Peptone; for MIC in YNB-AS, times higher than in YNB-SG: wild type SC5314
Method: (§1) Strains were grown at 30°C in YPD medium (1% yeast extract, 2% peptone, and 2% glucose) and stored on YPD plates containing 2% agar. Susceptibility testing was performed in YPD and other three media: (a) RPMI-1640 w/o sodium bicarbonate, with L-glutamine + 2% glucose + 3.45% MOPS, pH adjusted to 7.0; (b) YNB-AS—Yeast Nitrogen Base w/o amino acids (contains ammonium sulfate 5 g L^-1) + 2% glucose; (c) YNB-SG—Yeast Nitrogen Base w/o amino acids and ammonium sulfate + 2% glucose + 0.2 g L^-1 sodium glutamate. In their solid version, used for the mutant generation and isolation, YNB-AS and YNB-SG contained 2% agar.
(§2) The in vitro growth inhibitory activity of antifungals was quantified by determination of minimal inhibitory concentration (MIC) values by the serial twofold dilution method, using the 96-well microtiter plates in three media: buffered RPMI-1640, YNB-AS, and YNB-SG. Conditions of the RPMI-1640-based assay were the same as outlined in the CLSI recommendations ([Clinical Laboratory Standards Institute, 2008]), except for the end-point readout that was done by spectrophotometric determination of cell density at 531 nm. Turbidity in individual wells was measured with a microplate reader (Victor^3; Perkin Elmer). MIC was defined as the lowest drug concentration that gave at least an 80% decrease in turbidity, relative to that of the drug-free growth control.
(§3) The 96-well microtiter plates were also used for determination of in vitro growth inhibitory activity in YPD and YNB-based media. Individual wells were inoculated with 5 × 10^3 cfu mL^-1 of C. albicans cells from the overnight culture in YPD medium. The inoculated plates were incubated 37°C for 24 h and then turbidity was measured with a microplate reader at 531 nm, as described above for the RPMI-1640-based assay.

C. albicans opt1Δ = details: turbidity 531 nm, at least 80% decrease
Method: as §1, §2, §3

[1] = test system: C. albicans opt1–opt5Δ ptr2Δ ptr22Δ; details: turbidity 531 nm, at least 80% decrease
Method: as §1, §2, §3

C. albicans opt1–opt5Δ [2] = details: turbidity 531 nm, at least 80% decrease
Method: as §1, §2, §3

C. albicans opt2Δ opt3Δ = details: turbidity 531 nm, at least 80% decrease
Method: as §1, §2, §3

C. albicans opt4Δ = details: turbidity 531 nm, at least 80% decrease
Method: as §1, §2, §3

C. albicans opt5Δ = details: turbidity 531 nm, at least 80% decrease
Method: as §1, §2, §3

C. albicans ptr2Δ ptr22Δ = details: turbidity 531 nm, at least 80% decrease
Method: as §1, §2, §3

C. albicans opt1–opt5Δ [3] = assay: Initial peptide uptake rate; details: 50 mM potassium phosphate buffer (pH 5.0 or 6.5) + 1% glucose, 30°C, 100 μM peptide, TNBS A420, slope 0- to 10-min
Procedure, shortened: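 Exponentially grown yeast in 50 mM potassium phosphate (pH 5.0 or 6.5) with 1% glucose at 30°C received oligopeptide at a final 100 μM. Residual peptide in filtrates was measured every 5 min by trinitrobenzenesulfonate assay (A420). Initial rates come from 0–10 min slopes, per mg dry cells.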

C. albicans SC 5314 = assay: Disc diffusion method; details: YNB-AS agar, 10 μg of peptide on a disc (10 μL of 1 mg mL^-1), 48 h, 30°C
Method: Candida albicans cells, apparently resistant to FMDP-peptides, were isolated from the individual colonies formed on the surface of YNB-SG agar medium containing FMDP-peptide, 10 μg mL^-1 or within the growth inhibitory zones around the paper discs saturated with 10 μL of the FMDP-peptide solution, 1 mg mL^-1. In both versions, the agar surface was inoculated with 10^5 cells from the overnight culture in YPD medium, washed three times with sterile water, suspended in 0.2 mL of sterile water and the cell suspension was spread on the whole surface with a sterile glass rod. Plates were incubated for 48 h at 30°C and isolated colonies were picked with a platinum loop.
Growth inhibitory activity of FMDP-oligopeptides against C. albicans SC 5314 was also determined by the disc diffusion method. […] Cells grown in these colonies were collected, re-grown in YNB-AS and tested for sensitivity to FMDP-oligopeptides.
FIGURE 3 Disc diffusion activity determination of FMDP-oligopeptides. YNB-AS agar medium, 10 μg of each peptide applied on a disc. (A) F2; (B) F3; (C) F6; (D) F7; (E) F11.

[4] = RPMI-1640 medium, MOPS pH 7.0, CLSI conditions, turbidity 531 nm, at least 80% decrease
[5] = YNB + L-Gln (0.3 g L^-1) pH 5.0
[6] = YNB + L-Gln (0.3 g L^-1) pH 7.0
[7] = YNB + amino acid mixture (composition as in RPMI-1640)
[8] = YNB-AS medium, 5 × 10^3 cfu mL^-1, 37°C, 24 h, turbidity 531 nm, at least 80% decrease
[9] = RPMI-1640 medium, MOPS pH 7.0, CLSI conditions

Q: Which results are given for `COC(=O)/C=C/C(=O)NC[C@H](N)C(=O)N[C@@H](CCCNC(=N)N)C(=O)N[C@@H](CCCCN)C(=O)N[C@@H](CCCCN)C(=O)N[C@@H](Cc1c[nH]c2ccccc12)C(=O)N[C@@H](Cc1ccccc1)C(=O)N[C@@H](Cc1c[nH]c2ccccc12)C(=O)O` [Peptide F7, FMDP-Arg-Lys-Lys-Trp-Phe-Trp] (H-[Dap](Fumaryl(OMe))RKKWFW-OH; N-terminus and C-terminus assumed)?
A: MIC (C. albicans SC5314; [4]): >128 µg/mL; MIC (C. albicans SC5314; [5]): 8.0 µg/mL; MIC (C. albicans SC5314; [6]): 64 µg/mL; MIC (C. albicans SC5314; [7]): >128 µg/mL; MIC (C. albicans SC5314; [8]): 16 µg/mL (≈ 13.9 µM); MIC (C. albicans SC5314; YNB-SG medium, 5 × 10^3 cfu mL^-1, 37°C, 24 h, turbidity 531 nm, at least 80% decrease): 0.5 µg/mL (≈ 0.435 µM); MIC (C. albicans SC5314; growth medium YNB-SG (Table 6)): 0.5 µg/mL (≈ 0.435 µM); Increase of MICs in presence of Ala-Ala-Ala-Ala (C. albicans SC5314): 16- to 64 fold; Effect of supplementation with Ala-Ala or Ala-Ala-Ala on activity (C. albicans SC5314): no effect; MIC in YNB-AS, times higher than in YNB-SG (C. albicans SC5314): 8–16 times; MIC (C. albicans opt1Δ; [9]): >128 µg/mL; MIC (C. albicans opt1Δ; YNB-AS medium, 37°C, 24 h): 32 µg/mL (≈ 27.9 µM); MIC (C. albicans opt1Δ; YNB-SG medium, 37°C, 24 h): 8 µg/mL (≈ 6.97 µM); MIC [1, 9]: >128 µg/mL; MIC ([1]; YNB-AS medium, 37°C, 24 h): >128 µg/mL; MIC ([1]; YNB-SG medium, 37°C, 24 h): 64 µg/mL (≈ 55.7 µM); MIC (C. albicans opt1–opt5Δ [2]; [9]): >128 µg/mL; MIC (C. albicans opt1–opt5Δ [2]; YNB-AS medium, 37°C, 24 h): >128 µg/mL; MIC (C. albicans opt1–opt5Δ [2]; YNB-SG medium, 37°C, 24 h): 64 µg/mL (≈ 55.7 µM); MIC (C. albicans opt2Δ opt3Δ; [9]): >128 µg/mL; MIC (C. albicans opt2Δ opt3Δ; YNB-SG medium, 37°C, 24 h): 32 µg/mL (≈ 27.9 µM); MIC (C. albicans opt4Δ; [9]): >128 µg/mL; MIC (C. albicans opt4Δ; YNB-AS medium, 37°C, 24 h): 32 µg/mL (≈ 27.9 µM); MIC (C. albicans opt4Δ; YNB-SG medium, 37°C, 24 h): 16 µg/mL (≈ 13.9 µM); MIC (C. albicans opt5Δ; [9]): >128 µg/mL; MIC (C. albicans opt5Δ; YNB-AS medium, 37°C, 24 h): 32 µg/mL (≈ 27.9 µM); MIC (C. albicans opt5Δ; YNB-SG medium, 37°C, 24 h): 2 µg/mL (≈ 1.74 µM); MIC (C. albicans ptr2Δ ptr22Δ; [9]): >128 µg/mL; MIC (C. albicans ptr2Δ ptr22Δ; YNB-AS medium, 37°C, 24 h): 16 µg/mL (≈ 13.9 µM); MIC (C. albicans ptr2Δ ptr22Δ; YNB-SG medium, 37°C, 24 h): 0.5 µg/mL (≈ 0.435 µM); Uptake rate ± SD (C. albicans opt1–opt5Δ [3]): 0.32 ± 0.07 nmol min^-1 (mg dry weight)^-1; Appearance of growth inhibitory zone (C. albicans SC 5314): clear

Q: What does the source list for `COC(=O)/C=C/C(=O)NC[C@H](N)C(=O)N[C@@H](CCCCN)C(=O)N[C@@H](CCCCN)C(=O)N[C@H](C(=O)N[C@H](C(=O)N[C@@H](Cc1ccccc1)C(=O)N[C@@H](Cc1c[nH]c2ccccc12)C(=O)N[C@H](C(=O)N[C@@H](CCCCN)C(=O)N[C@@H](Cc1ccccc1)C(=O)N[C@@H](CCCCN)C(=O)O)C(C)C)C(C)C)C(C)C` [Peptide F11, FMDP-Lys-Lys-Val-Val-Phe-Trp-Val-Lys-Phe-Lys] (H-[Dap](Fumaryl(OMe))KKVVFWVKFK-OH; N-terminus assumed)?
A: MIC (C. albicans SC5314; [4]): >128 µg/mL; MIC (C. albicans SC5314; [5]): 16 µg/mL; MIC (C. albicans SC5314; [6]): >128 µg/mL; MIC (C. albicans SC5314; [7]): >128 µg/mL; MIC (C. albicans SC5314; [8]): 16 µg/mL (≈ 10.6 µM); MIC (C. albicans SC5314; growth medium YNB-SG (Table 6)): 1.0 µg/mL (≈ 0.664 µM); Increase of MICs in presence of Ala-Ala-Ala-Ala (C. albicans SC5314): 16- to 64 fold; Effect of N-acetyl-D-glucosamine supplementation on growth inhibitory activity (C. albicans SC5314; YNB-SG medium + N-acetyl-D-glucosamine, 10 mM): complete elimination of growth inhibitory activity; Effect of supplementation with Ala-Ala or Ala-Ala-Ala on activity (C. albicans SC5314): no effect; MIC in YNB-AS, times higher than in YNB-SG (C. albicans SC5314): 8–16 times; MIC (C. albicans opt1Δ; [9]): >128 µg/mL; MIC (C. albicans opt1Δ; YNB-AS medium, 37°C, 24 h): 32 µg/mL (≈ 21.2 µM); MIC [1, 9]: >128 µg/mL; MIC ([1]; YNB-AS medium, 37°C, 24 h): >128 µg/mL; MIC (C. albicans opt1–opt5Δ [2]; [9]): >128 µg/mL; MIC (C. albicans opt1–opt5Δ [2]; YNB-AS medium, 37°C, 24 h): >128 µg/mL; MIC (C. albicans opt2Δ opt3Δ; [9]): >128 µg/mL; MIC (C. albicans opt2Δ opt3Δ; YNB-AS medium, 37°C, 24 h): 128 µg/mL (≈ 84.9 µM); MIC (C. albicans opt4Δ; [9]): >128 µg/mL; MIC (C. albicans opt4Δ; YNB-AS medium, 37°C, 24 h): 32 µg/mL (≈ 21.2 µM); MIC (C. albicans opt5Δ; [9]): >128 µg/mL; MIC (C. albicans opt5Δ; YNB-AS medium, 37°C, 24 h): 16 µg/mL (≈ 10.6 µM); MIC (C. albicans ptr2Δ ptr22Δ; [9]): >128 µg/mL; MIC (C. albicans ptr2Δ ptr22Δ; YNB-AS medium, 37°C, 24 h): 16 µg/mL (≈ 10.6 µM); Appearance of growth inhibitory zone (C. albicans SC 5314): clear

Source: paper PMC5673977, “Transport Deficiency Is the Molecular Basis of Candida albicans Resistance to Antifungal Oligopeptides” (Frontiers in Microbiology, 2017)
